Experimental data taken from US20090047655A1, “Method Of Screening Candidate Drug” (priority 2004, published 2009).
Where two headings read alike, the source gives them in different places.

How the values were obtained:
[1] = mouse, in vivo
Source text: (§1) As for the chimeric mice, chimeric mice produced by Hiroshima Prefectural Institute of Industrial Science and Technology or PhoenixBio Co., Ltd. were used. To be more specific, mice in which human hepatocytes were engrafted and proliferated in the mouse liver were produced by transplanting human hepatocytes (IVT079, purchased from In Vitro Technology Inc., or BD51, purchased from BD Gentest Inc.) into the spleen of uPA(+/+)/SCID mice, which are mice having hepatic impairment and immunodeficiency. Mice in which 70% or more of the mouse liver had been replaced with human hepatocytes (high-replacement chimeric mice) and low-replacement chimeric mice in which although human hepatocytes had been transplanted, the replacement ratio was almost 0%, or untransplanted mice (mice with no replacement) were used (3 mice in each group). Further, as a control, 3 uPA(−/−)/SCID mice were used.
(§2) The concentration for administration of tolbutamide which is a standard drug for CYP2C9 was […]., and 4.175 mg of tolbutamide was weighed out and suspended in 1 ml of a CMC liquid in an agate mortar, and a 4.175 mg/ml suspension which is 5 times as high as the concentration for administration was prepared.
(§3) To the high-replacement chimeric mice, low-replacement chimeric mice (or mice with no replacement) and uPA(−/−)/SCID mice (3 mice in each group), 5 compounds were simultaneously administered orally by gavage or intravenously. The blood was collected from the tail vein of each mouse in an amount of 15 μl each at 0.25 (only intravenous administration), 0.5, 1, 2, 4 (only oral administration) and 8 hours after administration. Then, the blood was centrifuged at 3,500 rpm for 5 minutes, and the serum (supernatant) was collected and stored in a freezer at −30° C.
(§4) The serum samples were transported to Sumika Chemical Analysis Service, Ltd. while keeping it in dry ice, and subjected to measurement by LC-MS/MS according to the following procedure.
(§5) With regard to a liquid chromatograph, SIL-HTC and LC-10A series (Shimadzu Corporation) were used, and as a column, Synergi 4μ Polar-RP 80A, 150 mm (length)×2.00 mm (inner diameter), 4 μm (Phenomenex Inc.) was used at 30° C. As a mobile phase, methanol/a 10 mmol/l ammonium acetate solution/acetic acid (700/300/2, v/v/v) was used, and a flow rate was set at 0.2 ml/min. An injection volume was set at 2 μl, a measurement time was set at 10 min, and the temperature of an autosampler was set at 4° C. As a mass spectrometer, Tandem Mass Spectrometer API 4000 (Applied Biosystems/MDS SCIEX Inc.) was used. As API interface, Turbo V (ESI probe) was used, and as Ionization mode, Positive ion detection mode was used.
To Eppendorf tubes in which 5 μl of samples to be measured (serum) were contained, 100 μl of methanol was added, and 10 μl of 1 μg/ml of I.S. standard solution was added thereto, and then, the mixtures were thoroughly mixed by an ultrasonic treatment and a vortex mixer. […]
(§6) The determined values of the drug concentration in the serum were calculated from the peak area ratio obtained by the LC-MS/MS measurement of the samples for addition calibration curve. […] From the graphs, the peak serum concentration (Cmax), half-life (t1/2), area under the curve (AUC), bioavailability and clearance were analyzed, and pharmacokinetics in human was predicted.

[2] = in vivo; settings: mouse, in vivo
Source text: as §1, §2, §3, §4, §5
To Eppendorf tubes in which 5 μl of samples to be measured (serum) were contained, 100 μl of methanol was added, and 10 μl of 1 μg/ml of I.S. standard solution was added thereto, and then, the mixtures were thoroughly mixed by an ultrasonic treatment and a vortex mixer. The resulting mixtures were centrifuged (15,000 rpm, 5 min, room temperature), and the resulting supernatants were subjected to centrifugal filtration (10,000 rpm, 2 min, room temperature) with a filter, and the resulting filtrates were used as injection samples for LC-MS/MS.
as §6

[3] = test system: CYP2D6; assay: in vivo; settings: uPA(+/+)/SCID, mouse, po
Method: (§7) As for the chimeric mice, chimeric mice produced in PhoenixBio Co., Ltd. were used. To be more specific, 3 mice in which human hepatocytes were engrafted and proliferated in the mouse liver were produced by transplanting human hepatocytes (BD51, purchased from BD Gentist Inc.) into the spleen of uPA(+/+)/SCID mice, which are mice having hepatic impairment and immunodeficiency.
(§8) Paroxetine was dissolved in Milli-Q water (using a bath-type ultrasonic device) and prepared to give a final concentration of 6 mg/ml. The prepared drug was intraperitoneally administered to the mice at a dose of 5 μl/g b.w. (30 mg/kg b.w./day).
(§9) To the high-replacement chimeric mice, paroxetine was intraperitoneally administered for 3 days. Then, in the same manner as in Example 1, 5 compounds were simultaneously administered orally by gavage, the blood was collected over time, and the serum was stored.
(§10) The determination and analysis of drugs in the serum were carried out in the same manner as in Example 1.
(§11) The determined values of the drug concentration in the serum were calculated from the peak area ratio obtained by the LC-MS/MS measurement of the samples for addition calibration curve. […] From the graphs, Cmax, t1/2 and AUC were analyzed.

[4] = target: T1, CYP2C19 (Homo sapiens, UniProt P33261); assay: Inhibition of metabolic activity by paroxetine in high-replacement chimeric mouse (marker omeprazole); assay type: in vivo; settings: paroxetine 30 mg/kg b.w./day i.p. for 3 days, donor BD51
T1 construct: human hepatocytes were engrafted and proliferated in the mouse liver; host or cells: human donor hepatocytes BD51 engrafted in the liver of uPA(+/+)/SCID mice (high-replacement chimeric mice, PhoenixBio)
T1 sequence (P33261 whole entry): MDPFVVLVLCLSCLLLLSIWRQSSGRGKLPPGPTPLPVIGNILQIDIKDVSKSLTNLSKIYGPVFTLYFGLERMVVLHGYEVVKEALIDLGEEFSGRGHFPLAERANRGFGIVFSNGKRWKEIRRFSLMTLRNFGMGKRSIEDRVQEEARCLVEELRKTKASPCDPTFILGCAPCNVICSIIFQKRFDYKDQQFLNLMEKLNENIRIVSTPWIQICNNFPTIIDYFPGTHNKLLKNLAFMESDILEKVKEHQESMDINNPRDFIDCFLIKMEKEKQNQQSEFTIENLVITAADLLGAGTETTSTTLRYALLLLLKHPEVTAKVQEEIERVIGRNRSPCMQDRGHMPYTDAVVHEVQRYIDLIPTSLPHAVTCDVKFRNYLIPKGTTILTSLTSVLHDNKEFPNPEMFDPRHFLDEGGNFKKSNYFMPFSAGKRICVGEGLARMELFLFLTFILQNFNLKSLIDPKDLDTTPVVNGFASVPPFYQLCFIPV
Method: as §7, §8, §9, §10, §11

[5] = target: CYP1A2 (Homo sapiens, UniProt P05177); assay: Inhibition of metabolic activity by paroxetine in high-replacement chimeric mouse (marker caffeine); assay type: in vivo; settings: paroxetine 30 mg/kg b.w./day i.p. for 3 days, donor BD51
CYP1A2, sequence (P05177 whole entry): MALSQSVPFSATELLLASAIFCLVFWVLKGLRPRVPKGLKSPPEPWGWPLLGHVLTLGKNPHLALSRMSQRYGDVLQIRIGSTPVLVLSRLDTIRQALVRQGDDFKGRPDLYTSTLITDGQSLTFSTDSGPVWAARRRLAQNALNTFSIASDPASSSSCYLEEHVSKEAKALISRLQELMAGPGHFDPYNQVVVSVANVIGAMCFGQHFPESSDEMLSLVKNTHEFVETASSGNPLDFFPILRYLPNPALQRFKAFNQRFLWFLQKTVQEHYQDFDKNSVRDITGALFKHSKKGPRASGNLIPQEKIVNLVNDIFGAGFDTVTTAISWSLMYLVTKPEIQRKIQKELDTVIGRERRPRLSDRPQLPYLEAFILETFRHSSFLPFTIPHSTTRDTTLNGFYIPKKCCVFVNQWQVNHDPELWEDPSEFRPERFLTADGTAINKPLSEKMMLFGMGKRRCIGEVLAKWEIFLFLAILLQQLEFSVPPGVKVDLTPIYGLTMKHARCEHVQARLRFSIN
Method: as §7, §8, §9, §10, §11

[6] = target: T2, CYP3A4 (Homo sapiens, UniProt P08684); assay: Inhibition of metabolic activity by paroxetine in high-replacement chimeric mouse (marker erythromycin); assay type: in vivo; settings: paroxetine 30 mg/kg b.w./day i.p. for 3 days, donor BD51
T2 construct: human hepatocytes were engrafted and proliferated in the mouse liver; host or cells: human donor hepatocytes BD51 engrafted in the liver of uPA(+/+)/SCID mice (high-replacement chimeric mice, PhoenixBio)
T2 sequence (P08684 whole entry): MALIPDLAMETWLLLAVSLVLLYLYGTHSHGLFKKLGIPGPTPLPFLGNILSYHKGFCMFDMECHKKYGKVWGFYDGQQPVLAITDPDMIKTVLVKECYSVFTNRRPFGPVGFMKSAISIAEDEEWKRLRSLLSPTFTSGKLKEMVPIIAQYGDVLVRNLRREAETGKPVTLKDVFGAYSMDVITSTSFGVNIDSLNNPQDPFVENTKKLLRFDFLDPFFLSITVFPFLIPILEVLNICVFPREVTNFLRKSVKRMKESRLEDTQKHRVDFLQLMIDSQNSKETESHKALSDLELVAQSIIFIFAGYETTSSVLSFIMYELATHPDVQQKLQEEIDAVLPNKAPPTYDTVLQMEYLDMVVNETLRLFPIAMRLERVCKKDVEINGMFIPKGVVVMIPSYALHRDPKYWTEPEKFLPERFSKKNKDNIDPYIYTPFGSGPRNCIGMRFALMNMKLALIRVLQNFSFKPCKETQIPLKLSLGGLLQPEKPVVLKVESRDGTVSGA
Method: as §7, §8, §9, §10, §11

[7] = uPA(+/+)/SCID, po, t 1/2 Elimination phase
[8] = uPA(−/−)/SCID, iv, t 1/2 Distribution phase
[9] = uPA(−/−)/SCID, iv, t 1/2 Elimination phase

| AUC ([1]; uPA(+/+)/SCID) | half-life ([3]; t 1/2 Elimination phase) | inhibition of the metabolic activity of CYP2C19 [4] | inhibition of the metabolic activity of CYP1A2 [5] | inhibition of the metabolic activity of CYP3A4 [6] | SMILES | half-life [2, 7] | AUC ([2]; uPA(−/−)/SCID, iv, AUC) | half-life [2, 8] | half-life [2, 9] | AUC ([2]; uPA(−/−)/SCID, po, AUC) | bioavailability ([2]; uPA(−/−)/SCID, po) | Cmax ([2]; uPA(−/−)/SCID, po) | AUC [3] | half-life ([3]; t 1/2 Distribution phase) | AUC in high-replacement chimeric mice compared with low-replacement chimeric mice [1] | AUC in high-replacement chimeric mice compared with low-replacement chimeric mice [2] | AUC ([2]; uPA(+/+)/SCID, iv) | t 1/2 Distribution phase ([2]; uPA(+/+)/SCID, iv) | AUC ([2]; uPA(+/+)/SCID, iv, AUC) | half-life ([2]; uPA(+/+)/SCID, iv, t 1/2 Distribution phase) |
| --- | --- | --- | --- | --- | --- | --- | --- | --- | --- | --- | --- | --- | --- | --- | --- | --- | --- | --- | --- | --- |
| 322 ng·h/mL | 1.55 h |  |  |  | COc1ccc2[nH]c([S+]([O-])Cc3ncc(C)c(OC)c3C)nc2c1 (centres unmarked) [Omeprazole, omeprazole] | 1.03 h | 840 ng·h/mL | 0.24 h | 0.971 h | 114 ng·h/mL | 1.36% | 94 ng/mL | 964 ng·h/mL | 0.3 h |  |  |  |  |  |  |
|  |  |  |  |  | CCCCNC(=O)NS(=O)(=O)c1ccc(C)cc1 [Tolbutamide, tolbutamide] | 4.3 h | 11500 ng·h/mL | 2.84 h | 2.56 h | 95300 ng·h/mL | 82.9% | 16900 ng/mL | 115000 ng·h/mL | 3.31 h | significantly lower | significantly lower | 20600 ng·h/mL | 0.865^#3 hr | 16800 ng·h/mL | 0.982 h |
|  |  | inhibition | inhibition | inhibition | Fc1ccc([C@@H]2CCNC[C@H]2COc2ccc3c(c2)OCO3)cc1 [paroxetine, Paroxetine] |  |  |  |  |  |  |  |  |  |  |  |  |  |  |  |
